Experimental data reported in patent US20240415819A1, “MACROCYCLIC COMPOUNDS AS PROTEASOME SUBUNIT BETA TYPE-5 INHIBITORS” (Lead Discovery Center GmbH, priority 2021, published 2024).

Experiments:
[1] = molecular target: T1, β5 subunit of the human constitutive proteasome (CPS) (Homo sapiens, UniProt P28074); test: β5 inhibition assay, human constitutive proteasome (Suc-LLVY-AMC); type: biochemical; conditions: IC50 class, Suc-LLVY-AMC substrate
T1 construct: purchased Boston Biochem E-360
Experimental: The enzymatic activity of the β5 subunit of the human constitutive proteasome (CPS) is analyzed. In another assay, which differs from the assay of the human constitutive proteasome only in using the human immunoproteasome (IPS) the enzymatic activity of the β5 subunit of the human immunoproteasome (IPS) is analyzed. […] Inhibition is indicated as IC50 [nM] (“-”=not measured).

[2] = molecular target: T2, β5 subunit of the human immunoproteasome (IPS) (Homo sapiens, UniProt P28062); test: β5 inhibition assay, human immunoproteasome (Suc-LLVY-AMC); type: biochemical; conditions: IC50 class, Suc-LLVY-AMC substrate
T2 construct: purchased Boston Biochem E-370
Outline: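 Human immunoproteasome (1 nM final) was preincubated 10 min at RT with compound in 100 mM HEPES pH 7.5, 50 mM NaCl, 0.02% SDS, 1 mM DTT. Suc-LLVY-AMC (22.6 μM final) was then added for 4 h at RT in the dark. After stopping with 1 μM bortezomib, AMC fluorescence was read (ex 355/em 460 nm).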

[3] = tested on: A549 (human lung carcinoma cell line); test: Glo assay of A549 cells (Table 3; ProteasomeGlo plating scheme); type: cell-based; conditions: Homo sapiens; A549 cells; read-out: PGLo A549
Text: Inhibition is indicated as IC50 [nM] (“-”=not measured). […] • Chymotrypsin-Like Cell-Based Proteasome-GloTM Assay (Promega; […]) • Cell culture 384-well plates (Greiner BioOne; 781080) • Dispensing cassette, MultiDrop Standard tube dispensing cassette (Thermo Scientific; 24072670) • DPBS (Pan BioTech; P04-36500) • Cell culture 384-well plates (Greiner BioOne; 781080) • CPD source plate: diamond-shape plate (Labcyte; LP-0200) • Intermediate plate (Labcyte; P-05525) [table] • a. Remove the plates with cells from the incubator. • b. Take all the plates including the compound plate, intermediate plate and Staurosporine plate to the ECHO. • c. Click on “Open” in the ECHO software and select the protocol “QLI5_25ul_30 uM-Grenier”. • d. Follow the on-screen prompts and instructions once you click “Start” to insert the compound plate, intermediate plate and destination plates. • e. Change the final number of destination plates on the program. • f. Follow the on-screen prompts and instructions once you click “Start” to load the Staurosporine and destination plates. • g. Once all the compounds, DMSO and Staurosporine have been transferred, place the destination plates in a wet tissue box. • h. Place the destination plates back into the incubator and incubate at 37° C., 5% CO2 for 105 minutes. • i. Re-seal all the compound+Stauro diamond and intermediate plates and store in the dark. Chymotrypsin like ProteasomeGlo Assay • 1. Thaw the components of the ProteasomeGlo assay at room temperature including the ProteasomeGlo Buffer, the lyophilized Luciferin Detection Reagent and the Suc-LLVY-Glo Substrate. • 2. Reconstitute the Luciferin Detection Reagent in the amber coloured bottle by adding 50 ml of the ProteasomeGlo Buffer. • 3. Vortex the Suc-LLVY-Glo Substrate briefly to reconstitute the Substrate well. • 4. Spin down the Substrate and add 250 μl of the Substrate to the reconstituted Luciferin Detection Reagent from step 2. • 5. Briefly vortex the amber bottle with the mix to prepare a homogenous solution. • 6. Place the mix prepared in step 5 to sit at room temperature for 60 minutes. • 7. After 60 minutes, pipette 25 μl of the mix from step 5 into all wells with the cells. • 8. Shake the plates for 2-5 minutes to ensure the complete mixing of the ProteasomeGlo reagent with the cells. • 9. Leave the plates in the dark for 10-15 minutes. • 10. Measure the luminescence read-out using the Viktor and the protocol “Luminescence_384Well_0.2 sec”. (Note: The Protoeasome-GloTM Reagent (combined Proteasome-GloTM Substrate, Proteasome-GloTM Buffer and Luciferin Detection Reagent) can be stored at 4° C. or -20° C. for 1 month with minimal loss of activity.)

[4] = tested on: MM1 S (B lymphoblast cell line); test: 48 hr CTG viability assay, MM1S; type: cell-based; conditions: Homo sapiens, 48 hr CTG, read-out: MM1S IC50
Experimental: (§1) A viability assay was conducted for 48 hours to evaluate the inhibition of cancer cell growth by proteasome inhibitors. Briefly, the candidate cell line was plated with a 96-well plate following density of cells, respectively. 6×10^3 Cells/well for A2780 (human ovarian cancer cell line) and MDA-MB-468 (breast carcinoma), 8×10^3 Cells/well for Hs746T (human gastric carcinoma cell line), 1.1×10^4 Cells/well for MM1 S and RPMI 8226 (multiple myeloma). After 24 hours, the cells were treated with various concentrations of the compound (ranging from 0.0015 uM to 10 uM). […] After 48 hours of incubation at 37° C., 5% CO2 incubator, cells were analyzed for viability using the CellTiter-Glo Luminescent Cell Viability assay (Promega, Cat #G7570). All viability assays were performed in duplicate and Luminescence was read using an Envision (Perkin Elmer, USA). Data were analyzed using XLfit software. […] (human gastric carcinoma cell line), MM1 S (B lymphoblast cell line), and RPMI 8226 (B lymphocyte cell line, multiple myeloma). Inhibition is indicated as IC50 [nM] (“-”=not measured).

[5] = tested on: RPMI 8226 (B lymphocyte cell line, multiple myeloma); test: 48 hr CTG viability assay, RPMI 8226; type: cell-based; conditions: Homo sapiens, RPMI-8226; 48 hr CTG; read-out: RPMI-8226 IC50
Experimental: as §1

Cc1ccc2cc1CNC(=O)[C@H](CCc1ccccc1)NC(=O)[C@@H](NC(=O)C(C)(C)CN)CC(=O)N1CCCC(CCO2)C1 (stereo partly drawn) [Compound 682, 3-amino-2,2-dimethyl-N-((9S,12S)-5^4-methyl-8,11,14-trioxo-9-phenethyl-4-oxa-7,10-diaza-1(3,1)-piperidina-5(1,3)-benzenacyclotetradecaphane-12-yl)propanamide]
IC50 [1]: < 100 nM
IC50 [2]: < 100 nM
IC50 [3]: < 100 nM
IC50 [4]: < 100 nM
IC50 [5]: < 100 nM

Cc1ccc2cc1CNC(=O)[C@H](CCc1ccccc1)NC(=O)[C@@H](NC(=O)C(C)(C)CO)CC(=O)N1CCC[C@H](CCO2)C1 [Compound 573]
IC50 [4]: < 100 nM
IC50 [5]: < 100 nM

Cc1ccc2cc1CNC(=O)[C@H](CCc1ccccc1)NC(=O)[C@@H](N1CC(C)(C)NC1=O)CC(=O)N1CCCC(CCO2)C1 (stereo partly drawn) [Compound 733, (9S,12S)-12-(4,4-dimethyl-2-oxoimidazolidin-1-yl)-5^4-methyl-9-phenethyl-4-oxa-7,10-diaza-1(3,1)-piperidina-5(1,3)-benzenacyclotetradecaphane-8,11,14-trione]
IC50 [1]: 1000 to 5000 nM
IC50 [2]: 100 to 500 nM
IC50 [3]: 1000 to 5000 nM
IC50 [4]: 100 to 500 nM
IC50 [5]: 1000 to 5000 nM

Cc1ccc2cc1CNC(=O)[C@H](CCc1cccnc1)NC(=O)[C@@H](NC(=O)Cc1ccccc1F)CC(=O)N1CCCC(CCO2)C1 (stereo partly drawn) [Compound 600, 2-(2-fluorophenyl)-N-((9S,12S)-5^4-methyl-8,11,14-trioxo-9-(2-(pyridin-3-yl)ethyl)-4-oxa-7,10-diaza-1(3,1)-piperidina-5(1,3)-benzenacyclotetradecaphane-12-yl)acetamide]
IC50 [1]: < 100 nM
IC50 [2]: < 100 nM
IC50 [4]: < 100 nM
IC50 [5]: < 100 nM

Cc1ccc2cc1CNC(=O)[C@H](CCc1ccccc1)NC(=O)[C@@H](NC(=O)C1(CO)CCC1)CC(=O)N1CCCC(CCO2)C1 (stereo partly drawn) [Compound 670, 1-(hydroxymethyl)-N-((9S,12S)-5^4-methyl-8,11,14-trioxo-9-phenethyl-4-oxa-7,10-diaza-1(3,1)-piperidina-5(1,3)-benzenacyclotetradecaphane-12-yl)cyclobutane-1-carboxamide]
IC50 [1]: < 100 nM
IC50 [2]: < 100 nM
IC50 [3]: < 100 nM
IC50 [4]: < 100 nM
IC50 [5]: < 100 nM

Cc1ccc2cc1CNC(=O)[C@H](CCc1ccccc1)NC(=O)[C@@H](NC(=O)C1(CO)CCCC1)CC(=O)N1CCCC(CCO2)C1 (stereo partly drawn) [Compound 689, 1-(hydroxymethyl)-N-((9S,12S)-5^4-methyl-8,11,14-trioxo-9-phenethyl-4-oxa-7,10-diaza-1(3,1)-piperidina-5(1,3)-benzenacyclotetradecaphane-12-yl)cyclopentane-1-carboxamide]
IC50 [1]: < 100 nM
IC50 [2]: < 100 nM
IC50 [3]: < 100 nM
IC50 [4]: < 100 nM
IC50 [5]: < 100 nM

Cc1ccc2cc1CNC(=O)[C@H](CCc1ccccc1)NC(=O)[C@@H](NC(=O)C(C)(C)CF)CC(=O)N1CCCC(CCO2)C1 (stereo partly drawn) [Compound 650, 3-fluoro-2,2-dimethyl-N-((9S,12S)-5^4-methyl-8,11,14-trioxo-9-phenethyl-4-oxa-7,10-diaza-1(3,1)-piperidina-5(1,3)-benzenacyclotetradecaphane-12-yl)propanamide]
IC50 [1]: < 100 nM
IC50 [2]: < 100 nM
IC50 [3]: < 100 nM
IC50 [4]: < 100 nM
IC50 [5]: < 100 nM

Cc1ccc2cc1CNC(=O)[C@H](CCc1ccccc1)NC(=O)[C@@H](NC(=O)C(C)(C)CO)CC(=O)N1CCC[C@@H](CCO2)C1 [Compound 644, 3-hydroxy-2,2-dimethyl-N-((13S,9S,12S)-5^4-methyl-8,11,14-trioxo-9-phenethyl-4-oxa-7,10-diaza-1(3,1)-piperidina-5(1,3)-benzenacyclotetradecaphane-12-yl)propanamide]
IC50 [1]: < 100 nM
IC50 [2]: < 100 nM
IC50 [3]: < 100 nM
IC50 [4]: < 100 nM
IC50 [5]: < 100 nM
